Measured values as given in US20020137929A1, “1 - (3-heterocyclylphenyl) isothiourea, -isourea, -guanidine and -amidine herbicidal agents” (Intellectual Property Department, BASF Aktiengesellschaft, priority 1998, published 2002).

Key:
AMBEL (Ragweed, Common) [1] = experiment: Postemergence herbicidal evaluation; assay type: in vivo, Ambrosia artemisifolia; details: postemergence
How it was run: (§1)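 Herbicidal effect was judged by eye on a 0–9 scale covering stand, vigor, deformity, size and chlorosis, compared with controls, four to five weeks after seedlings about two weeks old were sprayed (40 psi, ~0.0156–0.500 kg/ha).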

[2] = test system: CHEAL (Lambsquarters, Common); experiment: Preemergence herbicidal evaluation; assay type: in vivo, Chenopodium album; details: rated 4-5 weeks after treatment
From the text: (§2) Results of herbicide evaluation are expressed on a rating scale (0-9). The scale is based upon a visual observation of plant stand, vigor, malformation, size, chlorosis and overall plant appearance as compared with a control.
(§3) The preemergence herbicidal activity of the test compounds of the present invention is exemplified by the following tests in which the seeds of a variety of monocotyledonous and dicotyledonous plants are separately mixed with potting soil and planted on top of approximately one inch of soil in separate pint cups. After planting, the cups are sprayed with the selected aqueous acetone solution containing test compound in sufficient quantity to provide the equivalent of about 0.0156 to 0.500 kg per hectare of test compound per cup. The treated cups are then placed on greenhouse benches, watered and cared for in accordance with conventional greenhouse procedures. From four to five weeks after treatment, the tests are terminated and each cup is examined and rated according to the rating system provided in Example 37.
(§4) The compounds evaluated are reported by compound number given in Example 37.

[3] = test system: CHEAL (Lambsquarters, Common); experiment: Postemergence herbicidal evaluation; assay type: in vivo, Chenopodium album; details: postemergence
Protocol: (§5) In the tests, seedling plants are grown in jiffy flats for about two weeks. The test compounds are dispersed in 50/50 acetone/water mixtures containing 0.5% TWEEN®20, a polyoxyethylene sorbitan monolaurate surfactant of Atlas Chemical Industries, in sufficient quantities to provide the equivalent of about 0.0156 kg to 0.500 kg per hectare of active compound when applied to the plants through a spray nozzle operating at 40 psi for a predetermined time. After spraying, the plants are placed on greenhouse benches and are cared for in accordance with conventional greenhouse procedures. From four to five weeks after treatment, the seedling plants are examined and rated according to the rating system set forth below. Where more than one test is involved for a given compound, the data are averaged.
(§6) Plant species employed in these evaluations are reported by header abbreviation, common name and scientific name.
as §2

MOOVA (Monochoria) = experiment: Preemergence weed control under flooded paddy conditions; assay type: in vivo, Monochoria vaginalis; details: rated 3-4 weeks after treatment
How it was run: (§7)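 Using flooded silt loam (water 1.5 to 3 cm deep), seeds sown in the top 0.5 cm were exposed preemergence to compound pipetted into the flood at about 0.0313 to 0.500 kg/ha. Effects were scored 0-9 by eye three to four weeks later.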

AMBEL (Ragweed, Common) [4] = experiment: Preemergence herbicidal evaluation; assay type: in vivo, Ambrosia artemisifolia; details: rated 4-5 weeks after treatment
From the text: as §2, §3, §4

CASOB (Sicklepod) [5] = experiment: Postemergence herbicidal evaluation; assay type: in vivo, Cassia obtusifolia; details: postemergence
How it was run: as §1

[6] = test system: SAGPY (Arrowhead (Pygmaea)); experiment: Preemergence weed control under flooded paddy conditions; assay type: in vivo, Sagittaria pygmaea; details: rated 3-4 weeks after treatment
How it was run: as §7

ABUTH (Velvetleaf) = experiment: Preemergence herbicidal evaluation; assay type: in vivo, Abutilon theophrasti; details: rated 4-5 weeks after treatment
From the text: as §2, §3, §4

ORYSAT (Rice, Tebonnet) = experiment: Preemergence herbicidal evaluation; assay type: in vivo, Oryza sativa, (L.) Tebonnet; details: rated 4-5 weeks after treatment
From the text: as §2, §3, §4

[7] = test system: TRZAWR (Wheat, Winter, cv Riband); experiment: Postemergence herbicidal evaluation; assay type: in vivo, Triticum aestivum; details: postemergence
Protocol: as §5, §6, §2

CASOB (Sicklepod) [8] = experiment: Preemergence herbicidal evaluation; assay type: in vivo, Cassia obtusifolia; details: rated 4-5 weeks after treatment
From the text: as §2, §3, §4

ECHCG (Barnyardgrass) = experiment: Postemergence herbicidal evaluation; assay type: in vivo, Echinochloa crus-galli; details: postemergence
Protocol: as §5, §6, §2

## CCC1SC(=Nc2cc(N3C(=O)C4=C(CCCC4)C3=O)c(F)cc2Cl)N(C)C1=O (stereo not drawn) [Compound 6, N-{4-chloro-5-[(5-ethyl-3-methyl-4-oxo-2-thiazolidinylidene)amino]-2-fluorophenyl}-1-cyclohexene-1,2-dicarboximide]
AMBEL (Ragweed, Common) [1]; rate 0.0157 kg/ha
  AMBEL herbicidal rating: 2.0
AMBEL (Ragweed, Common) [1]; rate 0.0313 kg/ha
  AMBEL herbicidal rating: 2.0
AMBEL (Ragweed, Common) [1]; rate 0.0625 kg/ha
  AMBEL herbicidal rating: 2.0
AMBEL (Ragweed, Common) [1]; rate 0.1250 kg/ha
  AMBEL herbicidal rating: 4.0
AMBEL (Ragweed, Common) [1]; rate 0.2500 kg/ha
  AMBEL herbicidal rating: 4.0
AMBEL (Ragweed, Common) [1]; rate 0.5000 kg/ha
  AMBEL herbicidal rating: 4.0
[2]; rate 0.1250 kg/ha
  CHEAL preemergence herbicidal rating: 2.0
[2]; rate 0.2500 kg/ha
  CHEAL preemergence herbicidal rating: 4.0
[2]; rate 0.5000 kg/ha
  CHEAL preemergence herbicidal rating: 9.0
[3]; rate 0.0157 kg/ha
  CHEAL herbicidal rating: 0.0
[3]; rate 0.0313 kg/ha
  CHEAL herbicidal rating: 0.0
[3]; rate 0.0625 kg/ha
  CHEAL herbicidal rating: 2.0
[3]; rate 0.2500 kg/ha
  CHEAL herbicidal rating: 6.0
[3]; rate 0.5000 kg/ha
  CHEAL herbicidal rating: 9.0
MOOVA (Monochoria); 0.0313 kg/ha
  Herbicidal rating MOOVA: 2.0
MOOVA (Monochoria); 0.0625 kg/ha
  Herbicidal rating MOOVA: 8.0
MOOVA (Monochoria); 0.1250 kg/ha
  Herbicidal rating MOOVA: 8.0
MOOVA (Monochoria); 0.2500 kg/ha
  Herbicidal rating MOOVA: 9.0
MOOVA (Monochoria); 0.5000 kg/ha
  Herbicidal rating MOOVA: 9.0
AMBEL (Ragweed, Common) [4]; rate 0.1250 kg/ha
  AMBEL preemergence herbicidal rating: 0.0
AMBEL (Ragweed, Common) [4]; rate 0.2500 kg/ha
  AMBEL preemergence herbicidal rating: 0.0
AMBEL (Ragweed, Common) [4]; rate 0.5000 kg/ha
  AMBEL preemergence herbicidal rating: 0.0
CASOB (Sicklepod) [5]; rate 0.0157 kg/ha
  CASOB herbicidal rating: 0.0
CASOB (Sicklepod) [5]; rate 0.0313 kg/ha
  CASOB herbicidal rating: 0.0
CASOB (Sicklepod) [5]; rate 0.0625 kg/ha
  CASOB herbicidal rating: 0.0
CASOB (Sicklepod) [5]; rate 0.1250 kg/ha
  CASOB herbicidal rating: 0.0
CASOB (Sicklepod) [5]; rate 0.2500 kg/ha
  CASOB herbicidal rating: 2.0
CASOB (Sicklepod) [5]; rate 0.5000 kg/ha
  CASOB herbicidal rating: 6.0
[6]; 0.0313 kg/ha
  Herbicidal rating SAGPY: 0.0
[6]; 0.0625 kg/ha
  Herbicidal rating SAGPY: 0.0
[6]; 0.1250 kg/ha
  Herbicidal rating SAGPY: 0.0
[6]; 0.2500 kg/ha
  Herbicidal rating SAGPY: 0.0
[6]; 0.5000 kg/ha
  Herbicidal rating SAGPY: 0.0
ABUTH (Velvetleaf); rate 0.1250 kg/ha
  ABUTH preemergence herbicidal rating: 0.0
ABUTH (Velvetleaf); rate 0.2500 kg/ha
  ABUTH preemergence herbicidal rating: 0.0
ABUTH (Velvetleaf); rate 0.5000 kg/ha
  ABUTH preemergence herbicidal rating: 0.0
ORYSAT (Rice, Tebonnet); rate 0.1250 kg/ha
  ORYSAT preemergence herbicidal rating: 0.0
ORYSAT (Rice, Tebonnet); rate 0.2500 kg/ha
  ORYSAT preemergence herbicidal rating: 0.0
ORYSAT (Rice, Tebonnet); rate 0.5000 kg/ha
  ORYSAT preemergence herbicidal rating: 0.0
[7]; rate 0.0157 kg/ha
  TRZAWR herbicidal rating: 2.5
[7]; rate 0.0313 kg/ha
  TRZAWR herbicidal rating: 2.5
[7]; rate 0.0625 kg/ha
  TRZAWR herbicidal rating: 3.0
[7]; rate 0.1250 kg/ha
  TRZAWR herbicidal rating: 3.0
[7]; rate 0.2500 kg/ha
  TRZAWR herbicidal rating: 3.5
[7]; rate 0.5000 kg/ha
  TRZAWR herbicidal rating: 3.5
CASOB (Sicklepod) [8]; rate 0.1250 kg/ha
  CASOB preemergence herbicidal rating: 0.0
CASOB (Sicklepod) [8]; rate 0.2500 kg/ha
  CASOB preemergence herbicidal rating: 0.0
CASOB (Sicklepod) [8]; rate 0.5000 kg/ha
  CASOB preemergence herbicidal rating: 0.0
ECHCG (Barnyardgrass); rate 0.0157 kg/ha
  ECHCG herbicidal rating: 0.0
ECHCG (Barnyardgrass); rate 0.0313 kg/ha
  ECHCG herbicidal rating: 0.0
ECHCG (Barnyardgrass); rate 0.0625 kg/ha
  ECHCG herbicidal rating: 0.0
ECHCG (Barnyardgrass); rate 0.1250 kg/ha
  ECHCG herbicidal rating: 0.0
ECHCG (Barnyardgrass); rate 0.2500 kg/ha
  ECHCG herbicidal rating: 1.0
ECHCG (Barnyardgrass); rate 0.5000 kg/ha
  ECHCG herbicidal rating: 2.0
